For this assay, the system named is PMA-differentiated THP-1 cells. The assay can be described thus: IL-1β production in PMA-differentiated THP-1 cells stimulated with gramicidin (hTHP-1 assay containing 2% fetal bovine serum; Procedures 1 and 2). As to conditions: 2% fetal bovine serum. The assay is classed as cell-based, human. Put shortly: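 IL-1β release from PMA-differentiated THP-1 macrophage-like cells was triggered by 5 μM gramicidin for 2 h after 1 h compound exposure, then measured by HTRF.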

[1] abbreviates: Homo sapiens, THP-1, Table B3, hTHP-1 assay, class symbols, read-out: IC50.
The mark [2] stands for this setting: Homo sapiens, THP-1, Table B2, class symbols, read-out: hTHP-1 IC50.
Setting [3] is: Table B1, class symbols, read-out: Average IC50 of compounds in hTHP-1 assay: hTHP-1 IC50.
[4] abbreviates: Homo sapiens, THP-1, Table B2, numeric bounds, read-out: hTHP-1 IC50.
[5] abbreviates: Table B2, class symbols, read-out: hTHP-1 IC50.
Where [6] appears, read: Homo sapiens, THP-1, Table B1, class symbols, read-out: Average IC50 of compounds in hTHP-1 assay: hTHP-1 IC50.
[7] abbreviates: Homo sapiens, THP-1, Table B4, class symbols, read-out: hTHP-1 IC50.

Read-outs that look alike come from different tables or passages of the source.

As for `CCn1ccc(S(N)(=O)=NC(=O)Nc2c3c(nc(C4CC4)c2C2CC2)CCC3)n1` (single isomer, unassigned) [Example 700, (S) or (R)-N′-((2,3-dicyclopropyl-6,7-dihydro-5H-cyclopenta[b]pyridin-4-yl)carbamoyl)-1-ethyl-1H-pyrazole-3-sulfonimidamide], for the setting “Table B3, hTHP-1 assay, class symbols, read-out: IC50”, the IC50 was 5 to 30 µM.
Turning to `CC(O)c1csc([S@](N)(=O)=NC(=O)Nc2c3c(nc4c2CC[C@H]4C)CCC3)c1` (stereo partly drawn) [Example 582, (R)-4-(1-hydroxyethyl)-N′-(((R)-3-methyl-1,2,3,5,6,7-hexahydrodicyclopenta[b,e]pyridin-8-yl)carbamoyl)thiophene-2-sulfonimidamide], the IC50 under setting [1] fell in the range of 0.04 to 0.2 µM.
Regarding `CC(C)c1cc(NC(=O)N=S(N)(=O)c2cc(C(C)(C)O)cs2)c2c(n1)CCC2` (single isomer, unassigned) [Compound 182b, (R) or (S)-4-(2-Hydroxypropan-2-yl)-N′-((2-isopropyl-6,7-dihydro-5H-cyclopenta[b]pyridin-4-yl)carbamoyl) thiophene-2-sulfonimidamide], the half-maximal inhibitory concentration (IC50) under setting [2] was in the range of 5 to 30 µM.
`CC(C)(O)c1cc(S(N)(=O)=NC(=O)Nc2c3c(nc4c2CCC4)CCC3)nn1-c1ccccc1` (single isomer, unassigned) [Compound 159b, (S) or (R)-N′-((1,2,3,5,6,7-hexahydrodicyclo-penta[b,e]pyridin-8-yl)carbamoyl)-5-(2-hydroxypropan-2-yl)-1-phenyl-1H-pyrazole-3-sulfonimidamide]: the IC50 under setting [3] fell in the range of 5 to 30 µM.
On to `Cc1c(C(C)(C)C)nc2c(c1NC(=O)N=S(N)(=O)c1cc(C(C)(C)O)cs1)CCC2` (single isomer, unassigned) [Compound 657a, (S) or (R)-N′-((2-(tert-butyl)-3-methyl-6,7-dihydro-5H-cyclopenta[b]pyridin-4-yl)carbamoyl)-4-(2-hydroxypropan-2-yl)thiophene-2-sulfonimidamide], for which the IC50 under setting [4] was greater than 30 µM.
Consider `CC1(C)CCc2c1nc1c(c2NC(=O)N=S(N)(=O)c2sc(C(O)(CO)CO)nc2CO)CCC1` (single isomer, unassigned) [Example 777, (R) or (S)-N′-((3,3-dimethyl-1,2,3,5,6,7-hexahydrodicyclopenta[b,e]pyridin-8-yl)carbamoyl)-4-(hydroxymethyl)-2-(1,2,3-trihydroxypropan-2-yl)-thiazole-5-sulfonimidamide], for which, where the note is “Table B4, class symbols, read-out: hTHP-1 IC50”, the IC50 was in the range of 0.2 to 1 µM.
`CC1(C)CCc2c1nc1c(c2NC(=O)N=S(N)(=O)c2sc(C(C)(O)CO)cc2F)CCC1` (stereo not shown) [Compound 640, 5-(1,2-Dihydroxypropan-2-yl)-N′-((3,3-dimethyl-1,2,3,5,6,7-hexahydrodicyclopenta[b,e]pyridin-8-yl)carbamoyl)-3-fluorothiophene-2-sulfonimidamide]: the half-inhibitory concentration (IC50) under setting [5] is 0.2 to 1 µM.
As to `CC1CCc2c1nc1c(c2NC(=O)N=S(N)(=O)c2sc(C(C)(C)O)nc2CO)CCC1` (stereo not shown) [Compound 168, 4-(hydroxymethyl)-2-(2-hydroxypropan-2-yl)-N′-((3-methyl-1,2,3,5,6,7-hexahydrodicyclopenta[b,e]pyridin-8-yl)carbamoyl)thiazole-5-sulfonimidamide], the IC50 under setting [3] was in the range of 0.2 to 1 µM.
As for `CC1(C)CCc2c1nc1c(c2NC(=O)N=S(N)(=O)c2ccn(-c3ccccc3)n2)CCC1` (single isomer, unassigned) [Compound 659a, (S) or (R)-N′-((3,3-dimethyl-1,2,3,5,6,7-hexahydrodicyclopenta [b,e]pyridin-8-yl)carbamoyl)-1-phenyl-1H-pyrazole-3-sulfonimidamide], the IC50 under setting [5] fell in the range of 5 to 30 µM.
Turning to `CCn1ccc([S@](N)(=O)=NC(=O)Nc2c3c(nc4c2CCC42CC2)CCC3)n1` [Compound 604b], the IC50 under setting [2] fell in the range of 0.2 to 1 µM.
For `C[C@@H]1CCc2c1nc1c(c2NC(=O)N=S(N)(=O)c2sc(CN(C)C)cc2F)CCC1` (single isomer, unassigned) [Compound 636a, (S) or (R)-5-((Dimethylamino)methyl)-3-fluoro-N′-(((R)-3-methyl-1,2,3,5,6,7-hexahydrodicyclopenta [b,e]pyridin-8-yl)carbamoyl) thiophene-2-sulfonimidamide], the IC50 under setting [5] lay in the range of 5 to 30 µM.
On to `Cc1c(C(F)(F)F)nc2c(c1NC(=O)N=S(N)(=O)c1cnc(C(C)(C)O)s1)CCC2C` (single isomer, unassigned) [Compound 608c], for which, under setting [5], the IC50 fell in the range of 0.2 to 1 µM.
In the case of `CC1CCc2c1nc1c(c2NC(=O)N=S(N)(=O)c2cc(C(C)(C)O)cs2)CCC1C` (single isomer, unassigned) [Compound 131g, (R,R,R) or (R,S,S)-N′-((3,5-dimethyl-1,2,3,5,6,7-hexa-hydrodicyclo-penta[b,e]pyridin-8-yl)carbamoyl)-4-(2-hydroxypropan-2-yl)thio-phene-2-sulfonimidamide], the IC50 under setting [3] lay within 0.2 to 1 µM.
The same measure, in the same setting: with `CC(C)n1ccc(S(N)(=O)=NC(=O)Nc2c3c(nc4c2CCC4(C)C)CCC3)n1` (single isomer, unassigned) [Compound 126a, (R) or (S)-N′-((3,3-dimethyl-1,2,3,5,6,7-hexahydro-dicyclopenta[b,e]pyridin-8-yl)carbamoyl)-1-isopropyl-1H-pyrazole-3-sulfonimidamide] the figure was 0.04 to 0.2 µM.
Consider `CC1(C)CCc2c1nc1c(c2NC(=O)N=S(N)(=O)c2cnc(C(C)(O)CO)s2)CCC1` (single isomer, unassigned) [Compound 201a, (R, R) or (S, R) or (R, S) or (S, S)-2-(1,2-Dihydroxypropan-2-yl)-N′-((3,3-dimethyl-1,2,3,5,6,7-hexahydrodicyclopenta [b,e]pyridin-8-yl)carbamoyl) thiazole-5-sulfonimidamide], for which the IC50 reads like this: under setting [6], 0.04 to 0.2 µM; under setting [5], 0.008 to 0.04 µM.
As for `CCn1cc(F)c(S(N)(=O)=NC(=O)Nc2c3c(nc(C(F)(F)F)c2C2CC2)CCC3)n1` (stereo not shown) [Compound 983], the IC50 under setting [1] lay within 0.04 to 0.2 µM.
As to `CC(C)(O)c1ccnc(S(N)(=O)=NC(=O)Nc2c3c(nc4c2CCC4(C)C)CCC3)c1` (stereo not shown) [Compound 620, N′-((3,3-dimethyl-1,2,3,5,6,7-hexahydrodicyclopenta[b,e]pyridin-8-yl)carbamoyl)-4-(2-hydroxypropan-2-yl)pyridine-2-sulfonimidamide], the IC50 under setting [2] was 5 to 30 µM.
In the case of `CC(C)n1cc(Cl)c(S(N)(=O)=NC(=O)Nc2c3c(nc4c2CCC4)CCC3)n1` (stereo not shown) [Compound 694, 4-Chloro-N′-((1,2,3,5,6,7-hexahydrodicyclopenta[b,e]pyridin-8-yl)carbamoyl)-1-isopropyl-1H-pyrazole-3-sulfonimidamide], the 50% inhibitory concentration (IC50) under setting [2] lay within 1 to 5 µM.
Turning to `Cc1c(C2(C)CC2)nc2c(c1NC(=O)N=S(N)(=O)c1cnc(C(C)(O)CO)s1)CCC2` (stereo not shown) [Example 606, 2-(1,2-Dihydroxypropan-2-yl)-N′-((3-methyl-2-(1-methylcyclopropyl)-6,7-dihydro-5H-cyclopenta[b]pyridin-4-yl)carbamoyl)thiazole-5-sulfonimidamide], under “Homo sapiens, THP-1, Table B3, hTHP-1 assay, numeric values, read-out: IC50”, the IC50 is greater than 30 µM.
For `CC1(C)CCc2c1nc1c(c2NC(=O)N=S(N)(=O)c2cnc(C(O)CO)s2)CCC1` (stereo not shown) [Example 753, 2-(1,2-Dihydroxyethyl)-N′-((3,3-dimethyl-1,2,3,5,6,7-hexahydrodicyclopenta[b,e]pyridin-8-yl)carbamoyl) thiazole-5-sulfonimidamide], the half-inhibitory concentration (IC50) under setting [7] was 0.2 to 1 µM.
For `Cc1nc2c(c(NC(=O)N=S(N)(=O)c3cc(C(C)(C)O)cs3)c1C1CC1)CCC2` (stereo not shown) [Compound 623, N′-((3-cyclopropyl-2-methyl-6,7-dihydro-5H-cyclopenta[b]pyridin-4-yl)carbamoyl)-4-(2-hydroxypropan-2-yl)thiophene-2-sulfonimidamide], under setting [2], the half-inhibitory concentration (IC50) lay in the range of 0.2 to 1 µM.
Consider `CC(C)(O)c1cc(F)c(S(N)(=O)=NC(=O)Nc2c3c(nc(C4CC4)c2C2CC2)CCC3)s1` (stereo not shown) [Compound 727], for which, under setting [2], the IC50 lay within 0.2 to 1 µM.
Regarding `CCc1c(C(F)(F)F)nc2c(c1NC(=O)N=S(N)(=O)c1cnc(C(C)(C)O)s1)CCC2` (stereo not shown) [Compound 610, N′-((3-ethyl-2-(trifluoromethyl)-6,7-dihydro-5H-cyclopenta[b]pyridin-4-yl)carbamoyl)-2-(2-hydroxypropan-2-yl)thiazole-5-sulfonimidamide], under setting [2], the 50% inhibitory concentration (IC50) was 5 to 30 µM.
Turning to `Cc1nc2c(c(NC(=O)N=[S@@](N)(=O)c3cnc(C(C)(C)O)s3)c1C1CC1)CCC2` [Compound 738], under setting [4], the IC50 is greater than 30 µM.
As to `CN(C)C(=O)c1ncc(S(N)(=O)=NC(=O)Nc2c3c(nc4c2CCC4(C)C)CCC3)s1` (stereo not shown) [Example 751, 5-(N′-((3,3-dimethyl-1,2,3,5,6,7-hexahydrodicyclopenta[b,e]pyridin-8-yl)carbamoyl)sulfamidimidoyl)-N,N-dimethyl-thiazole-2-carboxamide], under setting [7], the IC50 was in the range of 1 to 5 µM.
With `CC(C)(O)c1ncc(S(N)(=O)=NC(=O)Nc2c3c(nc4c2CCC4(C)C)CCC3)s1` (stereo not shown) [Compound 153, N′-((3,3-dimethyl-1,2,3,5,6,7-hexahydrodicyclopenta[b,e]pyridin-8-yl)carbamoyl)-2-(2-hydroxypropan-2-yl)thiazole-5-sulfonimidamide], under setting [6], the IC50 was 0.04 to 0.2 µM.
In the case of `CCc1nc2c(c(NC(=O)N=S(N)(=O)c3cc(C(C)(C)O)cs3)c1C1CC1)CCC2` (single isomer, unassigned) [Compound 654b], under setting [5], the IC50 is 0.2 to 1 µM.

The term IC50 denotes the midpoint of a concentration-inhibition curve.

The values are drawn from patent US20230031406A1, “COMPOUNDS AND COMPOSITIONS FOR TREATING CONDITIONS ASSOCIATED WITH NLRP ACTIVITY” (Novartis AG, priority 2018, published 2023).
